The source of these data is ChEMBL document CHEMBL1208785, “Discovery of novel alpha7 nicotinic receptor antagonists” (Bioorg Med Chem Lett, 2010).

For orientation: inhibition means the drop in the measured response relative to a control, in per cent. Higher therefore signals strong suppression.

Structures are written as SMILES.

This experiment addresses Neuronal acetylcholine receptor subunit alpha-7 (Rattus norvegicus) (UniProt Q05941). As to the kind of experiment: Displacement of [125I]alpha-bungarotoxin from alpha7 nicotinic acetylcholine receptor in rat brain membrane at 10 uM. It is filed as cell membranes. In general terms: Displacement assays read how much labelled ligand stays bound in the presence of the test substance.

Sequence of Neuronal acetylcholine receptor subunit alpha-7 (Rattus norvegicus) (Q05941 whole entry): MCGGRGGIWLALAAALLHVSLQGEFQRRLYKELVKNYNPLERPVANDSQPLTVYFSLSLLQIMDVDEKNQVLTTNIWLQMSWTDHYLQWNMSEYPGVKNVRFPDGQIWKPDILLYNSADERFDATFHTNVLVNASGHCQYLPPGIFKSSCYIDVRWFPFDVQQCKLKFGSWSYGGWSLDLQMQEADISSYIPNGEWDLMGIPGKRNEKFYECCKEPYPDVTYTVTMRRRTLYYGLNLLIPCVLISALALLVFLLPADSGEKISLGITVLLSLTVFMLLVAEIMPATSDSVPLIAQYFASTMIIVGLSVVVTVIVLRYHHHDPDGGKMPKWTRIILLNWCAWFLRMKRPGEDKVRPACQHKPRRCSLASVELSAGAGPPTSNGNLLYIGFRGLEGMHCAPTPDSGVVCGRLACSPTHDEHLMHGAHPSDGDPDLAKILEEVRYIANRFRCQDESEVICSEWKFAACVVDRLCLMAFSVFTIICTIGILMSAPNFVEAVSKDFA

For `COCCN1CCC(CNC(=O)c2cn(Cc3ccc(Cl)cc3)nn2)CC1`, the inhibition is 27.3%.
The compound `Cc1ccc(-c2c(C(=O)NC3CCN(C)CC3)cnn2-c2ccccc2)cc1` yielded an inhibition of 23.4%.
Take `CCCc1c(C(=O)NC2CCN(Cc3ccccc3)CC2)cnn1-c1ccccc1`: the inhibition came to 83.8%.
The compound `CCCc1c(C(=O)NC2CCN(C)CC2)cnn1-c1ccccc1` showed an inhibition of 3.1%.
`Cc1c(C(=O)NC2CCN(Cc3ccccc3)CC2)cnn1-c1ccc(F)cc1` showed an inhibition of 50%.
As for `COc1ccc(Cn2cc(C(=O)NCC3CCN(CCc4ccccc4)CC3)nn2)cc1`, the figure is 9.5%; as for `COCCN1CCC(CN(C)C(=O)c2cn(Cc3ccccc3Cl)nn2)CC1`, 43%; as for `CN1CCC(N(C)C(=O)c2cnn(-c3ccccc3-c3ccco3)c2C2CC2)CC1`, 10.5%.
Consider `O=C(NCC1CCN(Cc2ccccc2)CC1)c1cn(Cc2ccc3ccccc3c2)nn1`, for which the inhibition was 70.5%.
In turn, `Cc1c(C(=O)NC2CCN(Cc3ccccc3)CC2)cnn1-c1ccc(Cl)cc1` had an inhibition of 64.1%.
For the compound `Cc1ccccc1Cn1cc(C(=O)NCC2CCN(CCc3ccccc3)CC2)nn1`, the inhibition was found to be 25.2%.
Compound `CC(C)CN1CCC(CN(C)C(=O)c2cn(Cc3cc(F)ccc3F)nn2)CC1` showed an inhibition of 59.2%.
Take `Cc1c(C(=O)N(C)C2CCN(C)CC2)cnn1-c1ccc(Cl)cc1`: the inhibition is 13.5%.
Compound `Cc1ccc(-c2c(C(=O)N(C)C3CCN(C)CC3)cnn2-c2ccccc2)cc1` gave an inhibition of 12.1%.
Take `O=C(NCC1CCN(CCc2ccccc2)CC1)c1cn(Cc2ccc(Cl)cc2)nn1`: the inhibition is 18.3%.
For `CC(C)CN1CCC(CN(C)C(=O)c2cn(Cc3ccccc3Cl)nn2)CC1`, the inhibition came to 72.3%.
`Cc1c(C(=O)N(C)C2CCN(C)CC2)cnn1-c1ccc(F)cc1` displayed an inhibition of 11.9%.
As for `O=C(NCC1CCN(CCc2ccccc2)CC1)c1cn(Cc2ccccc2Cl)nn1`, the figure is 23.4%; as for `O=C(NCC1CCN(C2CCCC2)CC1)c1cn(Cc2ccccc2Cl)nn1`, 21.6%; as for `CCCc1c(C(=O)NC2CCNCC2)cnn1-c1ccccc1`, 1%.
